# Source: US10174037B2, “Dihydropyrazolopyrimidinone compounds as PDE2 inhibitors” (Merck Sharp & Dohme Corp., priority 2015, dated 2019)
# Target: human PDE2A1 (Homo sapiens (Human), UniProt O00408)
# Assay: PDE selectivity IMAP FP assay, human PDE2A1
# Format: biochemical
# Details: Human PDE2; Lab B; read-out: Human PDE2 Ki (nM) Lab B
# Procedure: Selectivity for PDE2, as compared to other PDE families, was assessed using the IMAP® technology. Human PDE10A2 enzyme was prepared from cytosolic fractions of transiently transfected HEK cells.
# A Labcyte POD 810 (Labcyte, Sunnyvale, Calif.) was used to dispense 200 nL from each well of the titration plate to make eleven copies of the assay plate for each titration, one copy for each PDE enzyme. A solution of each enzyme (dilution from aliquots, sufficient to produce 20% substrate conversion) and a separate solution of FAM-labeled cAMP or FAM-labeled cGMP from Molecular Devices (Sunnyvale, Calif., product # R7506 or cGMP#R7508), at a final concentration of 50 nM were made in the assay buffer (10 mM Tris HCl, pH 7.2, 10 mM MgCl2, 0.05% NaN3 0.01% Tween-20, and 1 mM DTT). Note that the substrate for PDE2 is 50 nM FAM cAMP containing 1000 nM of cGMP. The enzyme and the substrate were then added to the assay plates in two consecutive additions of 10 μL and then shaken to mix. The reaction was allowed to proceed at room temperature for 60 minutes. A binding solution was then made from the kit components, comprised of 80% Solution A, 20% Solution B and binding reagent at a volume of 1/600 the total binding solution. The enzymatic reaction was stopped by addition of 60 μL of the binding solution to each well of the assay plate. […] The plates were incubated at room temperature for one hour, then the parallel and perpendicular fluorescence was measured using a Tecan Genios Pro plate reader (Tecan, Switzerland). […] The intrinsic PDE2 inhibitory activity of a compound which may be used in accordance with the present invention may be determined by these assays. […]
# The PDE2 Ki is a measure of the ability of the test compound to inhibit the action of the PDE2 enzyme.
# Chain of human PDE2A1 (O00408 other isoform, or with tags, fused parts or gaps): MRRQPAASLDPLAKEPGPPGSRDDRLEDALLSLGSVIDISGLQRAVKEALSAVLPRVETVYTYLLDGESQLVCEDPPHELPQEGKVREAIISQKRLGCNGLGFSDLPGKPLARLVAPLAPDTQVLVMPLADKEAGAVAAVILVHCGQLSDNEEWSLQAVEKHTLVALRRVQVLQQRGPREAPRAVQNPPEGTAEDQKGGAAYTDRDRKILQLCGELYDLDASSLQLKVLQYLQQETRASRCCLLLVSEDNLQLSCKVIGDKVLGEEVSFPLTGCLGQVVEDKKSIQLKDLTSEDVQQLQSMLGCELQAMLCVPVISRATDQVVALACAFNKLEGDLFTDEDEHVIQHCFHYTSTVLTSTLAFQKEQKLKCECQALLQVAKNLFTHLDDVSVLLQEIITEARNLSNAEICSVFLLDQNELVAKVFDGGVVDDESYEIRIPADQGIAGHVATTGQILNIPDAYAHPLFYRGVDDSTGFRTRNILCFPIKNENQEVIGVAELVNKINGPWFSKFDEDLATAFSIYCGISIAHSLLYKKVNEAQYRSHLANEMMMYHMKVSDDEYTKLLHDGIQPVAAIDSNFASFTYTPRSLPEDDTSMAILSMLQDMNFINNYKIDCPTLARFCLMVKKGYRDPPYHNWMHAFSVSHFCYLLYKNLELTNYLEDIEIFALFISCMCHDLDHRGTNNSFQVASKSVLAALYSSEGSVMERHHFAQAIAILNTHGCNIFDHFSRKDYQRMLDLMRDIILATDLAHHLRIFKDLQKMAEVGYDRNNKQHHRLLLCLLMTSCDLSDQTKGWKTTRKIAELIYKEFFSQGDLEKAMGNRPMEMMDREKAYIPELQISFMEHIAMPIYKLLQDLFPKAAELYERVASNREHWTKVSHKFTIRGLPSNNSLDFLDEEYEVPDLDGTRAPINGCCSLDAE
row,SMILES,Ki [nM]
1,"CC(c1ccc(CC(F)F)cc1)n1nc(C(F)(F)F)c2c(=O)[nH]c(O)nc21 (single isomer, unassigned) [Example 320, (S)- or (R)-1-(1-(4-(2,2-Difluoroethyl)phenyl)ethyl)-6-hydroxy-3-(trifluoromethyl)-1H-pyrazolo[3,4-d]pyrimidin-4(5H)-one]",13
2,"O=c1[nH]c(O)nc2c1c(C(F)(F)F)nn2C(c1ccc(C(F)(F)F)cc1)C1CC1 (single isomer, unassigned) [Example 336, (S)- or (R)-1-(Cyclopropyl(4-(trifluoromethyl)phenyl)methyl)-6-hydroxy-3-(trifluoromethyl)-1H-pyrazolo[3,4-d]pyrimidin-4(5H)-one]",3.2
3,"CN(C)c1nc2c(c(CO)nn2C(c2ccc(C(C)(F)F)cc2F)C2CC2)c(=O)[nH]1 (single isomer, unassigned) [Example 352, (R)- or (S)-1-(Cyclopropyl(4-(1,1-difluoroethyl)-2-fluorophenyl)methyl)-6-(dimethylamino)-3-(hydroxymethyl)-1H-pyrazolo[3,4-d]pyrimidin-4(5H)-one]",1.2
4,"CCC(c1ccc(C(C)(F)F)cc1)n1nc(CO)c2c(=O)[nH]c(N(C)C)nc21 (single isomer, unassigned) [Example 136, (R)- or (S)-1-(1-(4-(1,1-Difluoroethyl)phenyl)propyl)-6-(dimethylamino)-3-(hydroxymethyl)-1H-pyrazolo[3,4-d]pyrimidin-4(5H)-one]",1.9
5,"CC(c1ccc(C(F)(F)F)c(Cl)c1)n1nc(C(F)(F)F)c2c(=O)[nH]c(O)nc21 (single isomer, unassigned) [Example 327, (R)- or (S)-1-(1-(3-Chloro-4-(trifluoromethyl)phenyl)ethyl)-6-hydroxy-3-(trifluoromethyl)-1H-pyrazolo[3,4-d]pyrimidin-4(5H)-one]",382
6,"CCOc1nc2c(c(CO)nn2[C@@H](C)c2ccc(C(F)(F)F)cc2)c(=O)[nH]1 [compound 302, 6-Ethoxy-3-(hydroxymethyl)-1-{(1S)-1-[4-(trifluoromethyl)phenyl]ethyl}-1,5-dihydro-4H-pyrazolo[3,4-d]pyrimidin-4-one]",3.7
7,"CC(c1ccc(OC(F)F)c(Cl)c1)n1nc(C(F)(F)F)c2c(=O)[nH]c(O)nc21 (single isomer, unassigned) [Example 325, (R)- or (S)-1-(1-(3-Chloro-4-(difluoromethoxy)phenyl)ethyl)-6-hydroxy-3-(trifluoromethyl)-1H-pyrazolo[3,4-d]pyrimidin-4(5H)-one]",529
8,"CCC(c1ccc(C(F)(F)F)cc1F)n1nc(CF)c2c(=O)[nH]c(N(C)C)nc21 (single isomer, unassigned) [Example 199, (S)- or (R)-6-(Dimethylamino)-1-(1-(2-fluoro-4-(trifluoromethyl)phenyl)propyl)-3-(fluoromethyl)-1H-pyrazolo[3,4-d]pyrimidin-4(5H)-one]",1.1
9,"CC(C)C(c1ccc(CC(F)(F)F)cc1)n1nc(CO)c2c(=O)[nH]c(N(C)C)nc21 (single isomer, unassigned) [Example 89, (S)- or (R)-6-(Dimethylamino)-3-(hydroxymethyl)-1-(2-methyl-1-(4-(2,2,2-trifluoroethyl)phenyl)propyl)-1H-pyrazolo[3,4-d]pyrimidin-4(5H)-one]",0.21
10,"CCC(c1ccc(C(F)(F)F)cc1F)n1nc(CO)c2c(=O)[nH]c(N(C)C)nc21 (single isomer, unassigned) [Example 131, (S)- or (R)-6-(Dimethylamino)-1-(1-(2-fluoro-4-(trifluoromethyl)phenyl)propyl)-3-(hydroxymethyl)-1H-pyrazolo[3,4-d]pyrimidin-4(5H)-one]",3.9
11,"CN(C)c1nc2c(c(CO)nn2C(c2ccc(C(C)(F)F)cc2F)C2CC2)c(=O)[nH]1 (single isomer, unassigned) [Example 353, (S)- or (R)-1-(Cyclopropyl(4-(1,1-difluoroethyl)-2-fluorophenyl)methyl)-6-(dimethylamino)-3-(hydroxymethyl)-1H-pyrazolo[3,4-d]pyrimidin-4(5H)-one]",0.05
12,"CC(c1ccc(C(C)(F)F)cc1)n1nc(C(F)(F)F)c2c(=O)[nH]c(O)nc21 (single isomer, unassigned) [Example 318, (S)- or (R)-1-(1-(4-(1,1-Difluoroethyl)phenyl)ethyl)-6-hydroxy-3-(trifluoromethyl)-1H-pyrazolo[3,4-d]pyrimidin-4(5H)-one]",3
13,"CC(c1ccc(C(F)(F)C(F)(F)F)cc1)n1nc(CO)c2c(=O)[nH]c(O)nc21 (single isomer, unassigned) [Example 32, (S)- or (R)-6-Hydroxv-3-(hydroxymethyl)-1-(1-(4-(perfluoroethyl)phenyl)ethyl)-1H-pyrazolo[3,4-d]pyrimidin-4(5H)-one]",~1900
14,"C[C@@H](c1ccc(C(F)(F)F)cc1)n1nc(C(F)(F)F)c2c(=O)[nH]c(N(C)C)nc21 [Example 339, (S)-6-(Dimethylamino)-3-(trifluoromethyl)-1-(1-(4-(trifluoromethyl)phenyl)ethyl)-1H-pyrazolo[3,4-d]pyrimidin-4(5H)-one]",2.1

# Second part, the molecule after the results:
row,Ki [nM],SMILES
1,137,"O=c1[nH]c(O)nc2c1c(C(F)(F)F)nn2C(c1ccc(C(F)(F)F)cc1)C1CC1 (single isomer, unassigned) [Example 335, (R)- or (S)-1-(Cyclopropyl(4-(trifluoromethyl)phenyl)methyl)-6-hydroxy-3-(trifluoromethyl)-1H-pyrazolo[3,4-d]pyrimidin-4(5H)-one]"
2,9.9,"CC(c1ccc(C(C)(F)F)cc1)n1nc(CO)c2c(=O)[nH]c(N(C)C)nc21 (single isomer, unassigned) [Example 102, (R)- or (S)-1-(1-(4-(1,1-Difluoroethyl)phenyl)ethyl)-6-(dimethylamino)-3-(hydroxymethyl)-1H-pyrazolo[3,4-d]pyrimidin-4(5H)-one]"
3,0.98,"CCC(c1ccc(C(C)(F)F)cc1F)n1nc(CF)c2c(=O)[nH]c(N(C)C)nc21 (single isomer, unassigned) [Example 215, (S)- or (R)-1-(1-(4-(1,1-Difluoroethyl)-2-fluorophenyl)propyl)-6-(dimethylamino)-3-(fluoromethyl)-1H-pyrazolo[3,4-d]pyrimidin-4(5H)-one]"
4,2.7,"CC(c1ccc(OC(F)(F)F)c(F)c1)n1nc(C(F)(F)F)c2c(=O)[nH]c(O)nc21 (single isomer, unassigned) [Example 309, (R)- or (S)-1-{1-[3-Fluoro-4-(trifluoromethoxy)phenyl]ethyl}-6-hydroxy-3-(trifluoromethyl)-1,5-dihydro-4H-pyrazolo[3,4-d]pyrimidin-4-one]"
5,2.5,"CC(c1ccc(C(F)(F)F)cc1)n1nc(CC(F)F)c2c(=O)[nH]c(O)nc21 (single isomer, unassigned) [Example 291]"
6,1.7,"CCC(c1ccc(OC(F)F)cc1F)n1nc(CF)c2c(=O)[nH]c(N(C)C)nc21 (single isomer, unassigned) [Example 343, (S)- or (R)-1-(1-(4-(Difluoromethoxy)-2-fluorophenyl)propyl)-6-(dimethylamino)-3-(fluoromethyl)-1H-pyrazolo[3,4-d]pyrimidin-4(5H)-one]"
7,2.4,"CCC(c1ccc(OC(F)F)cc1)n1nc(CO)c2c(=O)[nH]c(N(C)C)nc21 (single isomer, unassigned) [Example 125, (S)- or (R)-1-(1-(4-(Difluoromethoxy)phenyl)propyl)-6-(dimethylamino)-3-(hydroxymethyl)-1H-pyrazolo[3,4-d]pyrimidin-4(5H)-one]"
8,8,"CC(c1ccc(C(C)(F)F)cc1F)n1nc(CO)c2c(=O)[nH]c(N(C)C)nc21 (single isomer, unassigned) [Example 109, (S)- or (R)-1-(1-(4-(1,1-Difluoroethyl)-2-fluorophenyl)ethyl)-6-(dimethylamino)-3-(hydroxymethyl)-1H-pyrazolo[3,4-d]pyrimidin-4(5H)-one]"
9,137,"CC(c1ccc(C(F)(F)F)cc1)n1nc(CC(F)F)c2c(=O)[nH]c(O)nc21 (single isomer, unassigned) [Example 292]"
10,3,"CN(C)c1nc2c(c(CO)nn2C(c2ccc(C(F)F)c(F)c2)C2CC2)c(=O)[nH]1 (single isomer, unassigned) [Example 153, (S)- or (R)-1-(Cyclopropyl(4-(difluoromethyl)-3-fluorophenyl)methyl)-6-(dimethylamino)-3-(hydroxymethyl)-1H-pyrazolo[3,4-d]pyrimidin-4(5H)-one]"
11,0.02,"CN(C)c1nc2c(c(CO)nn2C(c2ccc(C(C)(F)F)c(F)c2)C2CC2)c(=O)[nH]1 (single isomer, unassigned) [Example 351, (S)- or (R)-1-(Cyclopropyl(4-(1,1-difluoroethyl)-3-fluorophenyl)methyl)-6-(dimethylamino)-3-(hydroxymethyl)-1H-pyrazolo[3,4-d]pyrimidin-4(5H)-one]"
